Laboratory results published in patent US20030096237A1, “Determination of the ability of patients to respond to a tumor treatment” (priority 2000, published 2003).

Test system: CNCM I-2545
Assay: oligonucleotide array analysis of IFN-α modulated gene expression
Format: cell-based, human
Set-up: key to nAD M94880 mhc class i (hla-a*8001): normalized average difference between perfect and mismatch probeset signals
Protocol: All these cell lines were cultured in RPMI medium supplemented with 10% FCS, glutamine (2 mM), sodium pyruvate (1 mM), non-essential amino acids and HEPES buffer (10 mM) (all from GIBCO Life Sciences, Paisley, UK). When confluent, the cells were passaged by trypsinization.
Cultured melanoma cells were harvested by scraping and total cellular RNA was extracted. 10 μg from each sample were used directly as templates for cDNA synthesis using a commercial kit (Roche Molecular Biochemicals, Rotkreuz, Switzerland). The T7 promoter sequence incorporated into the cDNA synthesis primer allowed template amplification and biotin labeling by in vitro transcription using a commercial kit (Affymetrix, Santa Clara, Calif.). After alkaline heat fragmentation […] was hybridised to the array (Affymetrix, Santa Clara, Calif.) and all subsequent steps were performed following standard procedures as supplied with the arrays. Raw data were collected with a confocal laser scanner (Hewlett Packard, Palo Alto, Calif.) using GeneChip software v3.1 (Affymetrix, Santa Clara, Calif.).
Raw data were normalized based on the total chip signal obtained upon hybridisation of ME15 cell line cDNA. This array was selected because: i) the 5′/3′ intensity ratio of control genes was smaller than 3; ii)>25% of the genes are called “present” by Genechip; iii) the image appearance is homogeneous with low background and no sign of mechanical chip damage.
The normalized average difference (nAD) between the signals of the perfect and of the mismatch probesets for each gene was used as the expression level of a given gene. At least one nAD value in a pairwise comparison of data has to exceed 50 to be included. Based on nAD, change factors related to IFN-α exposure were also calculated. Negative nAD values were set to 20 in order to avoid the calculation of artificially high modifications. In order to exclude artefacts, only genes with robust change factors, greater than 2-fold, were included in the analysis. […] Genes were clustered according to their mode of regulation.
Total cellular RNA was extracted from the sensitive and resistant melanoma cell lines identified above, reverse transcribed and processed for hybridization to an oligonucleotide array (Hu6800FL, PN 900183) containing probe sets derived from 7000 full-length human genes. Expression levels for each gene were calculated as normalized average difference (nAD, see materials and methods).
Patterns of genes expressed in IFN-α sensitive and resistant melanoma cell lines were investigated upon 48 hour culture in the presence of IFN-α. CNCM I-2546 and CNCM I-2545 were studied in detail.
In Table 2 below, CNCM I-2546 and CNCM I-2545 cultured for 48 hours in the absence or in the presence of 100 U/ml IFN-α were used to assay cytokine modulated gene expression as matched with data obtained in fibrosarcoma cells. This analysis yielded six clusters of genes. […] Data are presented as average difference of signal intensity between match and mismatch probesets.
In Table 3 below, CNCM I-2546 and CNCM I-2545 cell lines cultured for 48 hours in the absence or in the presence of 100 U/ml IFN-α were used to identify novel cytokine induced genes whose expression was not found to be modulated in fibrosarcoma cells. Cluster 1 includes genes inducible in the CNCM I-2546 sensitive but not in the CNCM I-2545 resistant cell line. Cluster 2 comprises genes inducible in both lines. Data are presented as average difference of signal intensity between match and mismatch probesets.

[1] = CNCM I-2545 (+) IFN-α 100 U/ml 48 hours, (−) 11
[2] = CNCM I-2545 (+) IFN-α 100 U/ml 48 hours, (−) 106
[3] = CNCM I-2545 (+) IFN-α 100 U/ml 48 hours, (−) 115
[4] = CNCM I-2545 (+) IFN-α 100 U/ml 48 hours, (−) 234
[5] = CNCM I-2545 (+) IFN-α 100 U/ml 48 hours, (−) 238

nAD U18018 ela enhancer binding protein (ela-f) [1]: 23 | nAD X70848 protein phosphatase 1, catalytic subunit (CNCM I-2545 (+) IFN-α 100 U/ml 48 hours, (−) 24): 226 | nAD L42243 ifnar2 gene (interferon receptor) (CNCM I-2545 (+) IFN-α 100 U/ml 48 hours, (−) 62): −6 | nAD D78132 rheb gene, ras-related gtp binding protein gene (CNCM I-2545 (+) IFN-α 100 U/ml 48 hours, (−) 88): 253 | nAD L40387 thyroid receptor interactor (trip14) (CNCM I-2545 (+) IFN-α 100 U/ml 48 hours, (−) 104): 5 | nAD U50648 interferon-inducible rna-dependent protein kinase (pkr) [2]: 46 | nAD U69126 fuse binding protein 2 (fbp2) (CNCM I-2545 (+) IFN-α 100 U/ml 48 hours, (−) 114): 159 | nAD U70063 human acid ceramidase [3]: 400 | nAD M19650 2′,3′-cyclic nucleotide 3prime-phosphodiesterase (CNCM I-2545 (+) IFN-α 100 U/ml 48 hours, (−) 137): 99 | nAD L37043 casein kinase i epsilon (CNCM I-2545 (+) IFN-α 100 U/ml 48 hours, (−) 218): 221 | nAD Z26491 gene catechol o-methyltransferase [5]: 181 | nAD U91316 acyl-coa thioester hydrolase (CNCM I-2545 (+) IFN-α 100 U/ml 48 hours, (−) 253): 428 | nAD X90846 mixed lineage kinase 2 (CNCM I-2545 (+) IFN-α 100 U/ml 48 hours, (−) 357): 60 | nAD Z47055 farnesyl pyrophosphate synthetase like (CNCM I-2545 (+) IFN-α 100 U/ml 48 hours, (−) 394): 797 | nAD U50327 protein kinase c substrate 80k-h gene (prkcsh) (CNCM I-2545 (+) IFN-α 100 U/ml 48 hours, (−) 401): 236 | nAD U65579 mitochondrial nadh dehydrogenase-ubiquinone (CNCM I-2545 (+) IFN-α 100 U/ml 48 hours, (−) 630): 621 | nAD X95325 dna binding protein a variant (CNCM I-2545 (+) IFN-α 100 U/ml 48 hours, (−) 634): 253 | nAD U47025 fetal brain glycogen phosphorylase b (CNCM I-2545 (+) IFN-α 100 U/ml 48 hours, (−) 672): 465 | nAD D32050 alanyl-trna synthetase (CNCM I-2545 (+) IFN-α 100 U/ml 48 hours, (−) 1458): 761 | nAD L13210 mac-2 binding protein (CNCM I-2545 (+) IFN-α 100 U/ml 48 hours, (−) 2555): 2092 | nAD L35249 vacuolar h + -atpase mr 56,000 subunit (ho57) (CNCM I-2545 (+) IFN-α 100 U/ml 48 hours, (−) −40): 357
Substance: IFN-α
nAD X15949 interferon regulatory factor-2 (irf-2) (CNCM I-2545 (+) IFN-α 100 U/ml 48 hours, (−) 0): 13 | nAD M92642 alpha-1 type xvi collagen (col16a1) [1]: 115 | nAD M30818 interferon-induced cellular resistance mediator protein (CNCM I-2545 (+) IFN-α 100 U/ml 48 hours, (−) 20): 5 | nAD L07633 interferon-gamma (CNCM I-2545 (+) IFN-α 100 U/ml 48 hours, (−) 22): 275 | nAD D28137 bst-2 (CNCM I-2545 (+) IFN-α 100 U/ml 48 hours, (−) 37): 88 | nAD J03909 gamma-interferon-inducible protein (ip-30) (CNCM I-2545 (+) IFN-α 100 U/ml 48 hours, (−) 42): 142 | nAD J04182 lysosomal membrane glycoprotein-1 (lamp1) (CNCM I-2545 (+) IFN-α 100 U/ml 48 hours, (−) 66): 484 | nAD Z56281 interferon regulatory factor 3 (CNCM I-2545 (+) IFN-α 100 U/ml 48 hours, (−) 93): 31 | nAD U53830 interferon regulatory factor 7a (CNCM I-2545 (+) IFN-α 100 U/ml 48 hours, (−) 103): 5 | nAD J00212 leukocyte interferon (ifn-alpha) [2]: 9 | nAD M60784 ul snrnp-specific protein [3]: 413 | nAD U72882 interferon-induced leucine zipper protein (ifp35) (CNCM I-2545 (+) IFN-α 100 U/ml 48 hours, (−) 125): 27 | nAD X76538 mpv17 (CNCM I-2545 (+) IFN-α 100 U/ml 48 hours, (−) 132): 101 | nAD X57522 ring4 cdna (CNCM I-2545 (+) IFN-α 100 U/ml 48 hours, (−) 143): 49 | nAD M65028 heterogeneous nuclear ribonucleoprotein a/b (CNCM I-2545 (+) IFN-α 100 U/ml 48 hours, (−) 154): 353 | nAD K01900 lymphocyte interferon alpha type 201 (CNCM I-2545 (+) IFN-α 100 U/ml 48 hours, (−) 156): 7 | nAD U78525 human eukaryotic translation initiation factor (eif3) (CNCM I-2545 (+) IFN-α 100 U/ml 48 hours, (−) 165): 372 | nAD M79462 pml-1 (CNCM I-2545 (+) IFN-α 100 U/ml 48 hours, (−) 201): 11 | nAD X04412 plasma gelsolin (CNCM I-2545 (+) IFN-α 100 U/ml 48 hours, (−) 220): 220 | nAD X96401 rox protein (CNCM I-2545 (+) IFN-α 100 U/ml 48 hours, (−) 229): 83 | nAD D50914 EST [4]: 78 | nAD X07730 prostate specific antigen [4]: 85 | nAD U72206 guanine nucleotide regulatory factor (lfp40) [5]: 162 | nAD U51127 interferon regulatory factor 5 (CNCM I-2545 (+) IFN-α 100 U/ml 48 hours, (−) 262): 91 | nAD U52513 rig-g (CNCM I-2545 (+) IFN-α 100 U/ml 48 hours, (−) 289): 10 | nAD M97935 transcription factor isgf-3 (CNCM I-2545 (+) IFN-α 100 U/ml 48 hours, (−) 331): 92 | nAD U01824 glutamate/aspartate transporter (CNCM I-2545 (+) IFN-α 100 U/ml 48 hours, (−) 339): 35 | nAD HG2917 major histocompatibility complex, class i, e (CNCM I-2545 (+) IFN-α 100 U/ml 48 hours, (−) 353): 322 | nAD M31013 nonmuscle myosin heavy chain (nmhc) (CNCM I-2545 (+) IFN-α 100 U/ml 48 hours, (−) 377): 263 | nAD D21235 hhr23a protein (CNCM I-2545 (+) IFN-α 100 U/ml 48 hours, (−) 388): 346 | nAD Y00264 amyloid a4 precursor (CNCM I-2545 (+) IFN-α 100 U/ml 48 hours, (−) 392): 427 | nAD U61263 acetolactate synthase homolog (CNCM I-2545 (+) IFN-α 100 U/ml 48 hours, (−) 410): 301 | nAD M34338 spermidine synthase (CNCM I-2545 (+) IFN-α 100 U/ml 48 hours, (−) 472): 277 | nAD D49824 hla-b null allele (CNCM I-2545 (+) IFN-α 100 U/ml 48 hours, (−) 527): 267 | nAD M94880 mhc class i (hla-a*8001) (CNCM I-2545 (+) IFN-α 100 U/ml 48 hours, (−) 551): 421 | nAD HG1612 macmarcks (CNCM I-2545 (+) IFN-α 100 U/ml 48 hours, (−) 588): 505 | nAD U18009 chromosome 17q21 clone lf113 (CNCM I-2545 (+) IFN-α 100 U/ml 48 hours, (−) 674): 423 | nAD J04444 cytochrome c-1 gene (CNCM I-2545 (+) IFN-α 100 U/ml 48 hours, (−) 886): 2268 | nAD HG658 major histocompatibility complex, class 1 c (CNCM I-2545 (+) IFN-α 100 U/ml 48 hours, (−) 1183): 455 | nAD J00105 beta-2 microglobulin gene (CNCM I-2545 (+) IFN-α 100 U/ml 48 hours, (−) 1668): 2101 | nAD X57351 1-8d gene from interferon-inducible gene family (CNCM I-2545 (+) IFN-α 100 U/ml 48 hours, (−) 2469): 2686 | nAD U65932 extracellular matrix protein 1 (ecm1) (CNCM I-2545 (+) IFN-α 100 U/ml 48 hours, (−) 2498): 1066 | nAD K03515 neuroleukin (CNCM I-2545 (+) IFN-α 100 U/ml 48 hours, (−) 2998): 2552 | nAD M98343 amplaxin (ems1) (CNCM I-2545 (+) IFN-α 100 U/ml 48 hours, (−) −24): 63 | nAD U09579 melanoma differentiation associated (mda-6) (CNCM I-2545 (+) IFN-α 100 U/ml 48 hours, (−) −59): −26 | nAD U41515 dss1 (CNCM I-2545 (+) IFN-α 100 U/ml 48 hours, (−) −62): 123 | nAD S81914 iex-1 = radiation-inducible immediate-early gene (CNCM I-2545 (+) IFN-α 100 U/ml 48 hours, (−) −66): 21 | nAD M13755 interferon-induced 17-kda/15-kda protein (CNCM I-2545 (+) IFN-α 100 U/ml 48 hours, (−) −163): 31 | nAD U22970 16-jun gene, interferon-inducible peptide (6-16) (CNCM I-2545 (+) IFN-α 100 U/ml 48 hours, (−) −190): 24 | nAD J04164 interferon-inducible protein 27-sep (CNCM I-2545 (+) IFN-α 100 U/ml 48 hours, (−) −447): −97 | nAD X67325 p27 (CNCM I-2545 (+) IFN-α 100 U/ml 48 hours, (−) −460): −86 | change factor (CF) D21235 hhr23a protein (CNCM I-2545, IFN-α 100 U/ml 48 hours): −0.12
